Columns and labels:
URAT1 = URAT1 (Homo sapiens (Human), UniProt Q96S37); test: URAT1 in vitro inhibition activity, Method A (14C-uric acid uptake in HEK293-URAT-4 cells); type: cell-based; details: 50 μM 14C-uric acid, 10 min uptake
Description: The potency of the compounds of formula (I) as inhibitors of the URAT1 was determined as follow.
Cell Lines were generated in WuXi AppTec (HEK293-URAT-4: Stable cell line of HEK293 which was transfected with pcDNA3.1-URAT (Human SLC22A12 cDNA Clone, Abgent-DC07943). HEK293-PCDNA-5: Negative control cell of HEK293 which was transfected with pcDNA3.1 empty vector.
Cells were seeded onto 24-well plates at the density of 2.0×10^5 cells per well. The cells were incubated at 37° C., 5% CO2 overnight. After approximately 24 hours culture, cells were used for uptake experiments. The culture medium were removed from the wells and the cells were incubated in 0.4 ml/well of Hank's balanced salt solution (HBSS) for 10 min. HBSS was replaced with 0.18 ml/well fresh HBSS. Compounds were 5 folds serial diluted in DMSO, and then 25 folds diluted in HBSS. Compounds diluted with HBSS (10 μl) were added to relevant well of cell plates, and plates were incubated at 37° C., 5% CO2 for 15 min. The final concentration of DMSO in the assay was 0.2%. 10 μl HBSS containing radioactively labeled Urate (^14C-uric acid) was added to each well. The final concentration of ^14C-uric acid in the assay medium was 50 μM. After 10 min, the assay medium was immediately removed. The cells were washed quickly with 0.5 ml pre-chilled HBSS twice. 0.1 M NaOH (0.4 ml) was added to lyse the cells for at least 20 min. The cell lysate was collected to a scintillation vial, and scintillant (4 ml) was added and the radioactivity was counted by a liquid scintillation counter. Inhibiton % data were calculated using the formula
[formula] CPD: Signal from a well containing a test compound HC (high control): Average of signals from HEK293-URAT-4 cells LC (low control): Average of signals from HEK293-PCDNA-5.

[1] = system: potassium oxonate-induced hyperuricemia in rats; test: Effect on potassium oxonate-induced hyperuricemia in rats (serum uric acid); type: in vivo, rat; details: male SD rats, 5 mg/kg oral; for serum uric acid levels, time after dosing 0.5 h: 0.5 h after dosing; for serum uric acid levels, time after dosing 1 h: 1 h after dosing; for serum uric acid levels, time after dosing 2 h: 2 h after dosing; for serum uric acid levels, time after dosing 3 h: 3 h after dosing; for serum uric acid levels, time after dosing 4 h: 4 h after dosing
Description: Healthy male SD rats, weighing 250±20 g, were used. In the experiment, except for 10 rats as normal control group were orally administered with distilled water, the others were orally administered with yeast extract (20 g/kg, qd×5 days). One hour after last administration, all the rats were intraperitoneal injection with 250 mg/kg potassium oxonate while normal control group was treated with an equal volume of 0.5% CMC-Na (injection volume of 2 ml/kg). After one hour, rats were anesthetized with isoflurane and the serum uric acid was determined by uric acid test strip. All the rats were divided into groups by uric acid. The model control group and experimental groups was given orally administration 0.5% CMC-Na or compounds with a dose of 10 ml/kg-bw. Phosphotungstic acid precipitation method was used to detect serum uric acids in inner canthus blood at 0.5, 1, 2, 3, 4 h after administration, respectively. Substantially, observing the effects of compounds on serum uric acids levels and calculating each of groups' AUC and the inhibition of uric acid increased area by the equation as follows: […]
As shown in the equation, AUC0 indicated the AUC of model control group, AUC1 indicated the AUC of therapy group, AUC2 indicated the AUC of normal control group.

Sequence of URAT1 (Q96S37 whole entry): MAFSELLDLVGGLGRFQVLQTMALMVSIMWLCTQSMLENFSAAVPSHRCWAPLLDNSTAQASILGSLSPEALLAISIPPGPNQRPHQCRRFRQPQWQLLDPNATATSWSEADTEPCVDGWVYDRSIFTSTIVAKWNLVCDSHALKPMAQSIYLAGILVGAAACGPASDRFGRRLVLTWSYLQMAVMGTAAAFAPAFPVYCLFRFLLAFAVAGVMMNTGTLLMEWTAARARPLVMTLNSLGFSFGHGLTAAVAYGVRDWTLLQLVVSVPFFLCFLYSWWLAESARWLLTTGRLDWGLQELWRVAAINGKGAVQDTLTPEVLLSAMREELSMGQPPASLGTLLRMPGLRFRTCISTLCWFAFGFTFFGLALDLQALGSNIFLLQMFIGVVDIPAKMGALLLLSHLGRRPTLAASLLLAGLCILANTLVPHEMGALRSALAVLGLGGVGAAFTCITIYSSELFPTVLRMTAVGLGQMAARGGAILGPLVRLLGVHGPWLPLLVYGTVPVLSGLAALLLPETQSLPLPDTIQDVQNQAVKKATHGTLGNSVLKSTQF

IC50 (URAT1)	SMILES	serum uric acid levels, time after dosing 0.5 h [1]	serum uric acid levels, time after dosing 1 h [1]	serum uric acid levels, time after dosing 2 h [1]	serum uric acid levels, time after dosing 3 h [1]	serum uric acid levels, time after dosing 4 h [1]
44 nM	N#Cc1ccc(-c2cnccc2SC2(C(=O)O)CCC2)n2cc(C(F)(F)F)cc12 [Example 7, 1-((3-(8-cyano-2-(trifluoromethyl)indolizin-5-yl)pyridin-4-yl)thio)cyclobutane-1-carboxylic acid]	485.3 ± 79.3 µmol/L	510.0 ± 103.7 µmol/L	460.6 ± 87.4 µmol/L	381.3 ± 84.3 µmol/L	307.9 ± 71.0 µmol/L
30 nM	N#Cc1ccc(-c2cnccc2SC2(C(=O)O)CCC2)n2cccc12 [Example 1, 1-((3-(8-Cyanoindolizin-5-yl)pyridin-4-yl)thio)cyclobutane-1-carboxylic acid]	492.8 ± 82.4 µmol/L	506.0 ± 88.5 µmol/L	407.7 ± 100.7 µmol/L	343.2 ± 84.3 µmol/L	289.8 ± 77.8 µmol/L
66 nM	CC(C)(Sc1ccncc1-c1ccc(C#N)c2cccn12)C(=O)O [Example 2, 2-((3-(8-cyanoindolizin-5-yl)pyridin-4-yl)thio)-2-methylpropanoic acid]	–	–	–	–	–

Source: patent US10894038B2, “Indolizine derivatives, composition and methods of use” (Shanghai Fochon Pharmaceutical Co., Ltd., priority 2015, dated 2021)
